pEC50: −log10 of the molar value.
Key:
[1] = system: normal human fibroblast cell HS27
[2] = system: HCV RNA replication in HCV replicon cell (Huh-7 carrying the subgenomic HCV genotype 1 replicon); conditions: read-out: Antiviral Activity HCV (EC50); cited from earlier work

Row | Compound | Cytotoxicity: concentration required to reduce proliferation of normal human fibroblast cell HS27 by 50% [1] [µM] | pEC50 [2]
1 | O=c1cc(OCc2ccccc2)oc2ccc(OCc3cccc(Cl)c3)c(O)c12 [5a, 2-benzyloxy-6-(3-chloro-benzyloxy)-5-hydroxy-chromen-4-one] | >50 | –
2 | O=c1cc(OCc2cccc(Cl)c2)oc2ccc(OCc3cccc(Cl)c3)c(O)c12 [5b, 2,6-bis-(3-chloro-benzyloxy)-5-hydroxy-chromen-4-one] | >50 | –
3 | O=c1cc(OCc2ccc(Cl)cc2)oc2ccc(OCc3cccc(Cl)c3)c(O)c12 [5c, 6-(3-chloro-benzyloxy)-2-(4-chloro-benzyloxy)-5-hydroxy-chromen-4-one] | >50 | –
4 | O=c1cc(OCc2cc(Cl)cc(Cl)c2)oc2ccc(OCc3cccc(Cl)c3)c(O)c12 [5d, 6-(3-chloro-benzyloxy)-2-(3,5-dichloro-benzyloxy)-5-hydroxy-chromen-4-one] | >50 | –
5 | O=c1cc(OCc2cccc(I)c2)oc2ccc(OCc3cccc(Cl)c3)c(O)c12 [5e, 6-(3-chloro-benzyloxy)-5-hydroxy-2-(3-iodo-benzyloxy)-chromen-4-one] | >50 | –
6 | O=c1cc(OCc2ccc(I)cc2)oc2ccc(OCc3cccc(Cl)c3)c(O)c12 [5f, 6-(3-chloro-benzyloxy)-5-hydroxy-2-(4-iodo-benzyloxy)-chromen-4-one] | >50 | –
7 | N#Cc1cccc(COc2cc(=O)c3c(O)c(OCc4cccc(Cl)c4)ccc3o2)c1 [5g, 3-[6-(3-chloro-benzyloxy)-5-hydroxy-4-oxo-4H-chromen-2-yloxymethyl]-benzonitrile] | >50 | –
8 | O=C(O)/C(O)=C/C(=O)c1cccc(NCc2ccc(Cl)cc2)c1 [compound 1, reference compound] | >50 | –
9 | O=c1c(OCc2cccc([N+](=O)[O-])c2)c(-c2ccccc2)oc2cc(O)cc(O)c12 [compound 3, reference compound] | >50 | 5.30
10 | N#Cc1cccc(COc2cc(O)c3c(=O)c(O)c(-c4ccccc4)oc3c2)c1 [compound 4, reference compound] | >50 | 5.52

Source: paper PMC7115508 (European Journal of Medicinal Chemistry, 2011)
